This experiment has as its target BRAF V600E (Homo sapiens, UniProt P15056, V600E). The experiment can be described thus: HiBiT cellular BRAF^V600E degradation assay. It counts as cell-based. As to conditions: for DC50: concentration at which 50% of total cellular BRAF^V600E is degraded; for Emax: read-out: HiBit 24 h Emax. Background: HiBiT is a short tag that completes a luciferase, so light tracks the accessible tagged protein.

Setting [1] is: A375.10 cells, 24 h, residual protein remaining in the cell.

Molecules are shown by their SMILES. Where two headings read alike, the source gives them in different places.

Chain of BRAF V600E (P15056 whole entry V600E): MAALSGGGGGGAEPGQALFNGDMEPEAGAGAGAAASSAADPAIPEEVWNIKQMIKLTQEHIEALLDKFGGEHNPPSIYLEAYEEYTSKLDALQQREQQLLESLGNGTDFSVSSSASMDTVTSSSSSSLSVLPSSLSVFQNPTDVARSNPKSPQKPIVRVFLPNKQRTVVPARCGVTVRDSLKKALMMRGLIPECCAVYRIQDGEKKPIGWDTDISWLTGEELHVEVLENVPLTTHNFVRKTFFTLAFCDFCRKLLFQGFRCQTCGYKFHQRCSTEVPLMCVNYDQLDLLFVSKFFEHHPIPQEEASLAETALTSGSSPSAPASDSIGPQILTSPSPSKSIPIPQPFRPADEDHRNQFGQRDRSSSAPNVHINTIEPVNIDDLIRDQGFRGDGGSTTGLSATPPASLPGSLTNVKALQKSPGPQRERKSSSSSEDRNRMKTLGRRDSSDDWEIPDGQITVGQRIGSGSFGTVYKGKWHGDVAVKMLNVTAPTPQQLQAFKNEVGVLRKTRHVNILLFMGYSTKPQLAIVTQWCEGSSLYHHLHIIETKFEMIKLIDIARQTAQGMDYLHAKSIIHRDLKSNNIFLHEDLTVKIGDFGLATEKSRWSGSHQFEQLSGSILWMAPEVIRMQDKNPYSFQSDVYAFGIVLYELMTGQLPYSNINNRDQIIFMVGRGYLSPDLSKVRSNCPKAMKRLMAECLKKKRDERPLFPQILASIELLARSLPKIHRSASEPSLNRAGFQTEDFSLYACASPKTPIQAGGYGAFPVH

As for `CCN(C)S(=O)(=O)Nc1ccc(F)c(Oc2ccc3ncn(CCC4CCN(C(=O)CN5CCC(c6ccc(NC7CCC(=O)NC7=O)cc6)CC5)CC4)c(=O)c3c2)c1C#N` (stereo not drawn) [Example A1, 6-[2-cyano-3-[[ethyl(methyl)sulfamoyl]amino]-6-fluoro-phenoxy]-3-[2-[1-[2-[4-[4-[(2,6-dioxo-3-piperidyl)amino]phenyl]-1-piperidyl]acetyl]-4-piperidyl]ethyl]-4-oxo-quinazoline], the DC50 (commonly the concentration giving 50% degradation) (A375.10 cells, 24 h) was found to be 78 nM. For the same compound, the Emax (commonly the maximal effect, on the per cent scale that the assay sets) under setting [1] worked out at 23%.
Taken in the same sequence, the figures for `CCN(C)S(=O)(=O)Nc1ccc(F)c(Oc2ccc3ncn([C@H]4COC5(CCN(C(=O)CC6(O)CCN(c7cc8c(cc7F)c(N7CCC(=O)NC7=O)nn8C)CC6)CC5)C4)c(=O)c3c2F)c1C#N` (single isomer, unassigned) [Example 174] were 25.6 nM and 21.2%.
For `CCN(C)S(=O)(=O)Nc1ccc(F)c(Oc2ccc3ncn([C@H]4COC5(CCN(C(=O)CN6CC[C@H](c7cc8c(cc7F)c(N7CCC(=O)NC7=O)nn8C)C(F)(F)C6)CC5)C4)c(=O)c3c2)c1C#N` (single isomer, unassigned) [Example 203] the same measures were 37.5 nM and 11.3%.
For `CCN(C)S(=O)(=O)Nc1ccc(F)c(Oc2ccc3ncn(C4CCC5(CCN(C(=O)CN6CCC(c7ccc(NC8CCC(=O)NC8=O)cc7F)CC6)CC5)C4)c(=O)c3c2C)c1C#N` (stereo not drawn) [Example 57, 6-[2-cyano-3-[[ethyl(methyl)sulfamoyl]amino]-6-fluorophenoxy]-3-[8-[2-[4-[4-[(2,6-dioxopiperidin-3-yl)amino]-2-fluorophenyl]piperidin-1-yl]acetyl]-8-azaspiro[4.5]decan-3-yl]-5-methyl-4-oxoquinazoline] the same measures were 20.9 nM and 11.5%.
The compound `N#Cc1c(NS(=O)(=O)N2CCCCC2)ccc(F)c1Oc1ccc2ncn(-c3cnc(N4CCN(C(=O)CN5CCC(c6ccc(N[C@H]7CCC(=O)NC7=O)cc6F)CC5)CC4)nc3)c(=O)c2c1` [Example 113, N-[2-cyano-3-[3-[2-[4-[2-[4-[4-[[(3S)-2,6-dioxopiperidin-3-yl]amino]-2-fluorophenyl]piperidin-1-yl]acetyl]piperazin-1-yl]pyrimidin-5-yl]-4-oxoquinazolin-6-yl]oxy-4-fluorophenyl]piperidine-1-sulfonamide] had a DC50 (A375.10 cells, 24 h) of 29.7 nM. In addition, the Emax under setting [1] stood at 11.1%.
For `COC1CCN(S(=O)(=O)Nc2ccc(F)c(Oc3ccc4ncn([C@H]5COC6(CCN(C(=O)CC7(O)CCN(c8cc9c(cc8F)c(N8CCC(=O)NC8=O)nn9C)CC7)CC6)C5)c(=O)c4c3)c2C#N)C1` (stereo partly drawn) [Example 175, N-[2-cyano-3-[3-[(3R)-8-[2-[1-[3-(2,4-dioxo-1,3-diazinan-1-yl)-5-fluoro-1-methylindazol-6-yl]-4-hydroxypiperidin-4-yl]acetyl]-1-oxa-8-azaspiro[4.5]decan-3-yl]-4-oxoquinazolin-6-yl]oxy-4-fluorophenyl]-3-methoxypyrrolidine-1-sulfonamide] the same measures were 31.2 nM and 31.1%.
As for `CCN(C)S(=O)(=O)Nc1ccc(F)c(Oc2ccc3ncn(-c4cnc(N5CCN(C(=O)CN6CCC(c7ccc(N[C@H]8CCC(=O)NC8=O)cc7F)CC6)CC5)nc4)c(=O)c3c2O)c1C#N` [Example 136, 6-[2-cyano-3-[[ethyl(methyl)sulfamoyl]amino]-6-fluorophenoxy]-3-[2-[4-[2-[4-[4-[[(3S)-2,6-dioxopiperidin-3-yl]amino]-2-fluorophenyl]piperidin-1-yl]acetyl]piperazin-1-yl]pyrimidin-5-yl]-5-hydroxy-4-oxoquinazoline], it took 16.3 nM to reach half-maximal degradation (A375.10 cells, 24 h) (DC50). In addition, the Emax under setting [1] stood at 16.9%.
Taken in the same sequence, the figures for `CCN(C)S(=O)(=O)Nc1ccc(F)c(Oc2ccc3ncn(C4C5CN(C(=O)CN6CCC(c7ccc(NC8CCC(=O)NC8=O)cc7F)CC6)CC54)c(=O)c3c2)c1C#N` (stereo not drawn) [Example 25, 6-[2-cyano-3-[[ethyl(methyl)sulfamoyl]amino]-6-fluorophenoxy]-3-[3-[2-[4-[4-[(2,6-dioxopiperidin-3-yl)amino]-2-fluorophenyl]piperidin-1-yl]acetyl]-3-azabicyclo[3.1.0]hexan-6-yl]-4-oxoquinazoline] were 34.8 nM and 11.9%.
Taken in the same sequence, the figures for `N#Cc1c(NS(=O)(=O)N2CCC2)ccc(F)c1Oc1ccc2ncn(-c3cnc(N4CCN(C(=O)CN5CCC(c6ccc(N[C@@H]7CCC(=O)NC7=O)cc6F)CC5)CC4)nc3)c(=O)c2c1` [Example 125, N-[2-cyano-3-[3-[2-[4-[2-[4-[4-[[(3R)-2,6-dioxopiperidin-3-yl]amino]-2-fluorophenyl]piperidin-1-yl]acetyl]piperazin-1-yl]pyrimidin-5-yl]-4-oxoquinazolin-6-yl]oxy-4-fluorophenyl]azetidine-1-sulfonamide] were 15.7 nM and 12.6%.
As to `CCN(C)S(=O)(=O)Nc1ccc(F)c(Oc2ccc3ncn([C@H]4COC5(CCN(C(=O)CN6CCC(c7ccc(NC8CCC(=O)NC8=O)c(F)c7)CC6)CC5)C4)c(=O)c3c2)c1C#N` (stereo partly drawn) [Example 54, (3R)-3-[6-[2-cyano-3-[[ethyl(methyl)sulfamoyl]amino]-6-fluorophenoxy]-4-oxoquinazolin-3-yl]-8-[2-[4-[4-[(2,6-dioxopiperidin-3-yl)amino]-3-fluorophenyl]piperidin-1-yl]acetyl]-1-oxa-8-azaspiro[4.5]decane], the Emax came to 12.1%. The compound further gave a DC50 (A375.10 cells, 24 h) of 15.4 nM.
On to `CCN(C)S(=O)(=O)Nc1ccc(F)c(Oc2ccc3ncn(-c4cnc(N5CCN(C(=O)CN6CCC(c7ccc(NC8CCC(=O)NC8=O)cc7F)CC6)CC5)nc4)c(=O)c3c2N)c1C#N` (stereo in doubt) [Example 102, 5-amino-6-[2-cyano-3-[[ethyl(methyl)sulfamoyl]amino]-6-fluorophenoxy]-3-[2-[4-[2-[4-[4-[[(3S)-2,6-dioxopiperidin-3-yl]amino]-2-fluorophenyl]piperidin-1-yl]acetyl]piperazin-1-yl]pyrimidin-5-yl]-4-oxoquinazoline], for which half-maximal degradation (A375.10 cells, 24 h) (DC50) was put at 15 nM. For the same compound, under setting [1], the “HiBit 24 h Emax” value is 9.75%.
Regarding `CCN(C)S(=O)(=O)Nc1ccc(F)c(Oc2ccc3ncn(C4CCC5(CCN(C(=O)CN6CCC(c7ccc(NC8CCC(=O)NC8=O)cc7F)CC6)CC5)C4)c(=O)c3c2)c1C#N` (stereo not drawn) [Example 28, 6-[2-cyano-3-[[ethyl(methyl)sulfamoyl]amino]-6-fluorophenoxy]-3-[8-[2-[4-[4-[(2,6-dioxopiperidin-3-yl)amino]-2-fluorophenyl]piperidin-1-yl]acetyl]-8-azaspiro[4.5]decan-3-yl]-4-oxoquinazoline], for the setting “A375.10 cells, 24 h”, the DC50 turned out to be 22.9 nM. Also, the Emax under setting [1] is 10.2%.
Take `CCN(C)S(=O)(=O)Nc1ccc(F)c(Oc2ccc3ncc([C@@H]4COC5(CCN(C(=O)CN6CCC(c7ccc(NC8CCC(=O)NC8=O)cc7F)CC6)CC5)C4)nc3c2)c1C#N` (stereo partly drawn) [Example 223, (3R)-3-[7-[2-cyano-3-[[ethyl(methyl)sulfamoyl]amino]-6-fluorophenoxy]quinoxalin-2-yl]-8-[2-[4-[4-[(2,6-dioxopiperidin-3-yl)amino]-2-fluorophenyl]piperidin-1-yl]acetyl]-1-oxa-8-azaspiro[4.5]decane]: where the note is “A375.10 cells, 24 h”, the DC50 is 29.6 nM. The Emax under setting [1] turned out to be 10.5%.
For `CCN(C)S(=O)(=O)Nc1ccc(F)c(Oc2ccc3ncn(-c4cnc(N5CCN(C(=O)CN6CCC(c7ccc(N[C@H]8CCC(=O)NC8=O)cc7F)CC6)CC5)nc4)c(=O)c3c2OC)c1C#N` [Example 100, 6-[2-cyano-3-[[ethyl(methyl)sulfamoyl]amino]-6-fluorophenoxy]-3-[2-[4-[2-[4-[4-[[(3S)-2,6-dioxopiperidin-3-yl]amino]-2-fluorophenyl]piperidin-1-yl]acetyl]piperazin-1-yl]pyrimidin-5-yl]-5-methoxy-4-oxoquinazoline] the same measures were 16.4 nM and 8.4%.
`CCN(C)S(=O)(=O)Nc1ccc(F)c(Oc2ccc3ncn([C@H]4COC5(CCN(C(=O)CN6CCC(c7ccc(NC8CCC(=O)NC8=O)cc7F)CC6)CC5)C4)c(=O)c3c2Br)c1C#N` (single isomer, unassigned) [Example 73]: it took 30.7 nM to reach half-maximal degradation (A375.10 cells, 24 h) (DC50). For the same compound, the Emax under setting [1] came out at 12%.
For `N#Cc1c(NS(=O)(=O)N2CC[C@@H](F)C2)ccc(F)c1Oc1ccc2ncn(-c3cnc(N4CCN(C(=O)CN5CCC(c6ccc(N[C@H]7CCC(=O)NC7=O)cc6F)CC5)CC4)nc3)c(=O)c2c1` [Example 116, (3R)—N-[2-cyano-3-[3-[2-[4-[2-[4-[4-[[(3S)-2,6-dioxopiperidin-3-yl]amino]-2-fluorophenyl]piperidin-1-yl]acetyl]piperazin-1-yl]pyrimidin-5-yl]-4-oxoquinazolin-6-yl]oxy-4-fluorophenyl]-3-fluoropyrrolidine-1-sulfonamide] the same measures were 17.1 nM and 9.01%.
Taken in the same sequence, the figures for `CCN(C)S(=O)(=O)Nc1ccc(F)c(Oc2ccc3ncc(C4COC5(CCN(C(=O)CN6CCC(c7ccc(NC8CCC(=O)NC8=O)cc7F)CC6)CC5)C4)nc3c2)c1C#N` (stereo not drawn) [Example 221, 3-[7-[2-cyano-3-[[ethyl(methyl)sulfamoyl]amino]-6-fluorophenoxy]quinoxalin-2-yl]-8-[2-[4-[4-[(2,6-dioxopiperidin-3-yl)amino]-2-fluorophenyl]piperidin-1-yl]acetyl]-1-oxa-8-azaspiro[4.5]decane] were 30.5 nM and 10.3%.
For `N#Cc1c(NS(=O)(=O)C2CCCC2)ccc(F)c1Oc1ccc2ncn(-c3cnc(N4CCN(C(=O)CN5CCC(c6ccc(N[C@@H]7CCC(=O)NC7=O)cc6F)CC5)CC4)nc3)c(=O)c2c1` [Example 108, N-[2-cyano-3-[3-[2-[4-[2-[4-[4-[[(3R)-2,6-dioxopiperidin-3-yl]amino]-2-fluorophenyl]piperidin-1-yl]acetyl]piperazin-1-yl]pyrimidin-5-yl]-4-oxoquinazolin-6-yl]oxy-4-fluorophenyl]cyclopentanesulfonamide] the same measures were 17.8 nM and 10.9%.
